Experimental data: US9957214B2, “Multifunctional radical quenchers” (ARIZONA BOARD OF REGENTS ON BEHALF OF ARIZONA STATE …, priority 2012, dated 2018)
Entries after “also recorded” stand apart in the source; their conditions may differ.

Columns and labels:
Format in all cases: cell-based
CEM leukemia cells = assay: Suppression of ROS production (DCFH-DA flow cytometry) in DEM-treated CEM leukemia cells; conditions: CEM leukemia cells pretreated with DEM, read-out: Scavenging activity (%), suppression of ROS production
Experimental: FIG. 1. Flow cytometric analysis of CEM leukemia lymphocytes (gray bars) and FRDA lymphocytes (black bars) stained with dichlorodihydrofluorescein diacetate (DCFH-DA) for 20 min, following pretreatment with the test compounds at 5 μM concentration for 16 h, and subsequent treatment with diethyl maleate (DEM) for 60 or 80 min to induce the production of ROS in CEM and FRDA lymphocytes, respectively. Data shown represent the mean±SEM of two different experiments run as duplicates.
Intracellular ROS production was measured in FRDA lymphocyte cells (GM15850, Coriell Cell Repositories, Camden, N.J.) using the oxidant sensitive fluorescent probe 2,7-dichlorodihydrofluorescein diacetate (DCFH-DA) (Molecular Probes) as described previously (Khdour et al. (2011) Pharm. Res. 28, 2896-2909). One mL of FRDA lymphocyte cells or leukemic CEM cells (5×10^5 cells) were plated in a 24-well plate, treated with the test compounds and incubated at 37° C. for 16 h in a humidified atmosphere containing 5% CO2 in air. Cells were treated with 5 mM diethyl maleate (DEM) for 80 min or 60 min respectively, collected by centrifugation at 300×g for 3 min and then washed with phosphate buffered saline (PBS) (Life Technologies). Cells were resuspended in PBS containing 20 mM glucose and incubated at 37° C. in the dark for […] with 10 μM DCFH-DA. Cells were collected by centrifugation at 300×g for 3 min and then washed with PBS. The samples were analyzed immediately by flow cytometry (C6 Accuri, BD Biosciences, San Jose, Calif.), using a 488 nm excitation laser and the FL1-H channel 530±15 nm emission filter. The generation of ROS, mainly peroxides, was detected as a result of the oxidation of DCFH. In each analysis, 10,000 events were recorded after cell debris was electronically gated out. Results obtained were verified by running duplicates and repeating experiments in three independent runs. Results were expressed as percentage of ROS scavenging activity.
The ability of the synthesized analogues to quench ROS and lipid peroxidation was evaluated in FRDA lymphocytes or leukemic CEM cells. These cells were placed under oxidative stress by depleting them of glutathione (GSH) using diethyl maleate (DEM). Depletion of glutathione by treatment FRDA lymphocytes or leukemic CEM cells with DEM has been used to induce oxidative stress in cellular systems by generation of ROS. Intracellular ROS production was measured using the oxidant sensitive fluorescent probe 2,7-dichlorodihydrofluorescein diacetate (DCFH-DA) (Molecular Probes).

FRDA lymphocytes [1] = assay: Suppression of ROS production (DCFH-DA flow cytometry) in DEM-treated FRDA lymphocytes; conditions: FRDA lymphocytes or leukemic CEM cells depleted of glutathione with DEM; compared with natural product 8
Experimental: FIG. 2. Representative flow cytometric analysis of ROS production in FRDA lymphocytes. Following pretreatment with the indicated compounds (5 and 10 μM) for 16 h, the cells were treated with 5 mM diethyl maleate (DEM) for 80 min to deplete glutathione. The cells were washed in phosphate-buffered saline and suspended in phosphate-buffered saline containing 20 mM glucose. Cells were loaded with 10 μM dichlorodihydrofluorescein diacetate (DCFH-DA) for 20 min, and the green fluorescence (DCF) was measured by flow cytometry (C6 Accuri, BD Biosciences, San Jose, Calif.), using a 488 nm excitation laser and the FL1-H channel 530±15 nm emission filter. […] A total of 10,000 events was recorded for each sample and analyzed (C6 Accuri software, BD Biosciences). […] Data are expressed as the mean±SEM (n=3).
Intracellular ROS production was measured in FRDA lymphocyte cells (GM15850, Coriell Cell Repositories, Camden, N.J.) using the oxidant sensitive fluorescent probe 2,7-dichlorodihydrofluorescein diacetate (DCFH-DA) (Molecular Probes) as described previously (Khdour et al. (2011) Pharm. Res. 28, 2896-2909). […] The samples were analyzed immediately by flow cytometry (C6 Accuri, BD Biosciences, San Jose, Calif.), using a 488 nm excitation laser and the FL1-H channel 530±15 nm emission filter. The generation of ROS, mainly peroxides, was detected as a result of the oxidation of DCFH. […]

FRDA lymphocytes [2] = assay: Preservation of mitochondrial membrane potential (TMRM flow cytometry) in DEM-treated FRDA lymphocytes
Experimental: FIG. 3. Effect of nitrogen-containing 1,4-benzoquinone derivatives on mitochondrial membrane potential of cultured FRDA cells. Representative flow cytometric two dimensional color density dot plot analyses of mitochondrial membrane potential Δψm in FRDA lymphocytes stained with TMRM and analyzed using the FL2-H channel as described in Experimental Section. The cells were washed twice in phosphate buffered saline, and suspended in phosphate buffered saline containing 20 mM glucose. The percentage of cells with intact Δψm is indicated in the top right quadrant of captions. In each analysis, 10,000 events were recorded. Data are expressed as means±SEM of three independent experiments run in duplicate.
Mitochondrial membrane potential was measured using two different fluorescent dyes, TMRM and JC-1. Δψm was determined as previously described by staining FRDA lymphocyte cells with TMRM (Molecular Probes, Eugene, Oreg.) and analyzing fluorescence emission by flow cytometry in detection channel 2 (FL2-H) (Khdour et al. (2011) Pharmaceut. Res. 28, 2896-2909). Briefly, FRDA lymphocytes were pre-treated with or without the test compounds for 16 h. The cells were treated with 5 mM DEM for 140 min, collected by centrifugation at 300×g for 3 min and then washed twice with phosphate buffered saline. The cells were resuspended in PBS containing […] and incubated at 37° C. in the dark for 15 min with 250 nM TMRM. Cells were collected by centrifugation at 300×g for 3 min and were then washed with phosphate buffered saline. The samples were analyzed immediately by flow cytometry using a 488 nm excitation laser and the FL2-H channel. The results obtained were verified in three independent experiments. […] In each analysis, 10,000 events were recorded. […] The following day, cells were treated with tested compounds and incubated for an additional 12 h before treatment with 1 mM BSO. Δψm was assessed after 24 h using JC-1 Mitochondrial Membrane Potential Detection Kit (Biotium, Inc) following the manufacturer instruction. Glass cover slips were rinsed with phosphate-buffered saline and mounted onto slides, and images were recorded and analyzed with a Zeiss AxioCam MRm and AxioVision 3.1 software (Carl Zeiss Goettingen, Germany) on a Zeiss Axiovert 200 M inverted microscope, equipped with a 40× oil immersion objective.
The ability of the test compounds to preserve mitochondrial membrane potential under conditions of oxidative stress was studied. […] Changes in mitochondrial membrane potential (Δψm) were measured using two different fluorescent dyes, tetramethylrhodamine methyl ester (TMRM) and 5,5′,6,6′-tetrachloro-1,1′,3,3′-tetraethylbenzimidazolocarbocyanine iodide (JC-1). […] The fluorescence signal of TMRM can be directly co-related to Δψm across the inner mitochondrial membrane. […]

Compound: CCCCCCCCCCCCCC1=C(NCCCC(=O)OCCCCCC)C(=O)C(C)=C(NCCCC(=O)OCCCCCC)C1=O [Compound 50, 2,5-bis(hexyl 4-aminobutanoate)-3-methyl-6-tridecylcyclohexa-2,5-diene-1,4-dione]
- inhibition at 5 µM (CEM leukemia cells): 14 ± 1%

Compound: CCCCCCCCCCCCCC1=C(OC)C(=O)C(C)=C(NCCCC(=O)OC(C)(C)C)C1=O [Compound 43, tert-butyl 4-(4-methoxy-2-methyl-3,6-dioxo-5-tridecylcyclohexa-1,4-dienylamino)butanoate]
- inhibition at 5 µM (CEM leukemia cells): 35 ± 6%

Compound: COC1=C2CCCCCCCCCCCCCCCNC(=CC1=O)C2=O [Compound 40]
- Suppression of ROS (in words) (FRDA lymphocytes [1]): very effective in suppressing ROS
- Preservation of mitochondrial membrane potential Δψm (in words) (FRDA lymphocytes [2]): prevented the loss of Δψm; also recorded: able to prevent oxidative-stress induced collapse of Δψm

Compound: CCCCCCCCCCCCCC1=C(OC)C(=O)C=C(NCCCC(=O)OCCCCCC)C1=O [Compound 18, Hexyl 4-(4-methoxy-3,6-dioxo-5-tridecylcyclohexa-1,4-dienylamino)butanoate]
- Preservation of mitochondrial membrane potential Δψm (in words) (FRDA lymphocytes [2]): prevented the loss of Δψm

Compound: CCCCCCCCCCCCCC1=C(OC)C(=O)C(C)=C(NCCCC(=O)OCCCCCC)C1=O [Compound 49, Hexyl 4-(4-methoxy-2-methyl-3,6-dioxo-5-tridecylcyclohexa-1,4-dienylamino)butanoate]
- inhibition at 5 µM (CEM leukemia cells): 16 ± 8%

Compound: CCCCCCCCCCCCCC1=C(OC)C(=O)C(C)=C(NCCCC(=O)OCCCC)C1=O [Compound 46, Butyl 4-(4-methoxy-2-methyl-3,6-dioxo-5-tridecylcyclohexa-1,4-dienylamino)butanoate]
- inhibition at 5 µM (CEM leukemia cells): 50 ± 5%

Compound: CCCCCCCCCCCCCC1=C(OC)C(=O)C=C(NCCCC(=O)OC(C)(C)C)C1=O [Compound 7, tert-butyl 4-(4-methoxy-3,6-dioxo-5-tridecylcyclohexa-1,4-dienylamino)butanoate]
- Suppression of ROS (in words) (FRDA lymphocytes [1]): very effective in suppressing ROS
- Preservation of mitochondrial membrane potential Δψm (in words) (FRDA lymphocytes [2]): preserved mitochondrial membrane potential; also recorded: able to prevent oxidative-stress induced collapse of Δψm
